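48-hour exposure; five concentrations; linearly interpolated endpoints. Here, GI50 denotes the concentration required for 50% inhibition of growth. The concentration for full growth arrest is given as TGI.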
Assays:
Test in all cases: NCI-60 cell line screen, 48 h
RXF 393 renal = test system: RXF 393 renal
MDA-MB-435 = test system: MDA-MB-435
IGROV1 ovarian = test system: IGROV1 ovarian
SW-620 colon = test system: SW-620 colon
HT29 colon = test system: HT29 colon
OVCAR-3 ovarian = test system: OVCAR-3 ovarian
OVCAR-8 ovarian = test system: OVCAR-8 ovarian
SN12C renal = test system: SN12C renal
UACC-62 melanoma = test system: UACC-62 melanoma
SK-MEL-5 melanoma = test system: SK-MEL-5 melanoma

Row | SMILES | GI50 (RXF 393 renal) [nM] | TGI (RXF 393 renal) [µM] | GI50 (MDA-MB-435) [nM] | TGI (MDA-MB-435) [µM] | TGI (IGROV1 ovarian) [µM] | GI50 (SW-620 colon) [nM] | TGI (SW-620 colon) [µM] | TGI (HT29 colon) [µM] | TGI (OVCAR-3 ovarian) [µM] | GI50 (OVCAR-8 ovarian) [µM] | GI50 (SN12C renal) [µM] | TGI (SN12C renal) [µM] | TGI (UACC-62 melanoma) [µM] | TGI (SK-MEL-5 melanoma) [µM] | TGI (OVCAR-8 ovarian) [µM] | GI50 (IGROV1 ovarian) [µM] | GI50 (HT29 colon) [nM] | GI50 (OVCAR-3 ovarian) [nM] | GI50 (UACC-62 melanoma) [µM] | GI50 (SK-MEL-5 melanoma) [µM]
1 | Cc1cc(-c2ccc3nc(C4CCOCC4)n(CCOC(F)(F)F)c3c2)cn(C)c1=O | 885 | 6.34 | 210 | > 47.5 | 6.91 | 1790 | 33.3 | > 63.1 | 3.94 | 0.952 | 1.22 | 31.1 | 2.06 | 1.27 | – | – | – | – | – | –
2 | N=Nc1c(OC(=O)Nc2cccc(Cl)c2)[nH]c2ccccc12 | – | 26.1 | – | 21.3 | 21.4 | – | 24.6 | 17.7 | 6.6 | – | – | 14.8 | 21.1 | 24 | 20 | – | – | – | – | –
3 | COc1cc(OC)cc(-c2cc(=O)c3c(OC)c(OC)c(OC)c(OC)c3o2)c1 | – | 84.8 | – | > 100 | > 100 | – | > 100 | > 100 | > 100 | – | – | > 100 | > 100 | 84 | > 100 | – | – | – | – | –
4 | COc1ccc(-c2nnc(COc3ccc(C(=O)/C=C/c4ccco4)cc3)o2)cc1 | 1870 | 3.62 | 2130 | 5.08 | 4.38 | 1910 | 4.11 | 3.61 | 3.95 | 3.04 | 3.17 | 11.5 | 11.2 | 11.1 | 10.1 | 2.08 | 1910 | 1950 | 3.14 | 3.16
5 | Cc1ccccc1S(=O)(=O)OC1NS(=O)(=O)c2ccccc21 (centres undefined) | – | > 100 | – | > 100 | > 100 | – | > 100 | > 100 | > 100 | – | – | > 100 | > 100 | > 100 | > 100 | – | – | – | – | –
6 | O=c1c2sccc2n(CC2COc3ccccc3O2)c(=O)n1O (centres undefined) | 3000 | 9.7 | 23900 | > 100 | > 100 | 3760 | > 100 | > 100 | 44.9 | 30.5 | 11.1 | > 100 | 46.4 | 61.1 | > 100 | 15.4 | 24100 | 10400 | 14.6 | 17.1
7 | O=C1OC(O)[C@@H]2[C@H]1[C@H]1CC[C@@H]2O1 (some centres undefined) | 57000 | > 100 | > 100000 | > 100 | > 100 | 52000 | > 100 | 32.2 | 69.2 | > 100 | > 92.3 | > 100 | > 100 | > 100 | > 100 | > 100 | 4990 | 32800 | > 100 | 68.2
8 | CC(C)[C@H]1COC(=O)N1[C@@H]1C(=O)N([C@@H](CCC(=O)N2CCN(C3CCCC3)CC2)C(=O)N[C@@H]2CCCc3ccccc32)[C@@H]1/C=C/c1cccc(Br)c1 | 1590 | 3.47 | 1260 | 2.65 | 5.9 | 1950 | 4.57 | 2.77 | 3.92 | 4.12 | 2.27 | 5.51 | 3.58 | 2.84 | 15.4 | 1.83 | 1300 | 1970 | 1.8 | 1.51
9 | COc1cc2c(c(OC)c1OC)-c1ccc(OC)c(=O)cc1C(NC(=O)c1ccc(N=[N+]=[N-])cc1)CC2 (centres undefined) | – | 0.061 | – | 0.0473 | > 100 | – | > 100 | 0.208 | 0.0555 | – | – | > 41.9 | 31.1 | 1.95 | 1.02 | – | – | – | – | –
10 | O=C(/C=C/c1ccncc1)c1cc(Cl)ccc1O | 18300 | 33.1 | 17100 | 41 | 38.5 | 12500 | 30.5 | 29.7 | 32.9 | 23.6 | 23.4 | 68.4 | 37.3 | 34.4 | 57 | 15 | 14100 | 17300 | 15.9 | 19.2
11 | COc1ccc(/C=C(/C#N)n2nnc3cccc(F)c32)cc1 | 1300 | 6.37 | 180 | 0.471 | 16.3 | 399 | > 100 | > 100 | 0.899 | 1.97 | 1.93 | > 100 | 29.9 | 5.46 | > 100 | 0.759 | 410 | 316 | 0.516 | 0.877
12 | CN1CCN(CCCn2c(=O)c3sc4ncccc4c3n3nnc(-c4ccccc4)c23)CC1 | 6360 | 13.4 | 1180 | 3.01 | 13.8 | 5340 | 11.5 | 9.54 | 7.58 | 7.83 | 7.2 | 14.2 | 16.1 | 13.8 | 15.3 | 5.93 | 2890 | 2300 | 8.85 | 7.21
